The test system of assay [1] is rats subjected to li-pilo SE. As to the kind of experiment: Example 2: mortality over the first 48 h after Li-pilo SE. The class given is in vivo, rat. Further details: concentration or dose not given beside the values.
Assay [2] has as its system rats subjected to Li-pilo induced SE. As to the kind of experiment: Example 1: Timm staining, mossy fiber sprouting in hippocampus. The class given is in vivo, rat. Particulars: for Timm score: 60 mg/kg. The method, then:
At 2 months after the onset of spontaneous recurrent seizures, mossy fiber sprouting was examined on rats in the chronic period exposed to the test compound or DZP and in 3 saline-saline rats. Animals were deeply anaesthetized and perfused transcardially with saline followed by 100 ml of 1.15% (w/v) Na2S in 0.1 M phosphate buffer, and 100 ml of 4% (v/v) formaldehyde in 0.1 M phosphate buffer. Brains were removed from skull, post-fixed in 4% formaldehyde during 3-5 h and 40 μm sections were cut on a sliding vibratome and mounted on gelatin-coated slides.
The following day, sections were developed in the dark in a 26° C. solution of 50% (w/v) arabic gum (160 ml), sodium citrate buffer (30 ml), 5.7% (w/v) hydroquinone (80 ml) and 10% (w/v) silver nitrate (2.5 ml) during 40-45 min. The sections were then rinsed with tap water at 40° C. during at least 45 min, rinsed rapidly with distilled water and allowed to dry. They were dehydrated in ethanol and coverslipped.
Mossy fiber sprouting was evaluated according to criteria previously described in dorsal hippocampus (Cavazos et al., 1991, J Neurosci 11:2795-2803.), which are follows: 0—no granules between the tips and crest of the DG; 1—sparse granules in the supragranular region in a patchy distribution between the tips and crest of DG; 2—more numerous granules in a continuous distribution between the tips and crest of DG; 3—prominent granules in a continuous pattern between tips and crest, with occasional patches of confluent granules between tips and crest; 4—prominent granules that form a confluent dense laminar band between tips and crest and 5—confluent dense laminar band of granules that extends into the inner molecular layer.

The next assay has as its system seizures in rats. In words: ED50 for preventing seizures in rats. The class given is in vivo. To be noted: Rattus norvegicus, depending on the time and experiment type.

Molecules are shown by their SMILES.

The ED50 is the dose that gives a 50% effect, or the effect in half of the subjects. For the molecule `NC(=O)OC[C@@H](O)c1ccccc1Cl` [TC], the “mortality over the first 48 h after SE” value in assay [1] (TC30, group for cell counting at 14 days) is recorded as 33%; in assay [1] (TC30, group for latency to SRS and late cell counting), 27%; in assay [1] (TC60, group for cell counting at 14 days), 8%; in assay [1] (TC60, group for latency to SRS and late cell counting) it was 0%; in assay [1] (TC90, group for cell counting at 14 days), 0%; in assay [1] (TC90, group for latency to SRS and late cell counting), 0%. For the same molecule, the “mortality over the first 48 h after SE” value in assay [1] (TC120, group for cell counting at 14 days) came out at 33%; in assay [1] (TC120, group for latency to SRS and late cell counting), 0%. Besides, the values for the Timm score in assay [2] (subgroup with early SRS occurrence) and in assay [2] (subgroup with late occurrence or absence of SRS) were 1.8±0.6 and 1.2±0.6, respectively. Also, the “Timm score in the upper blade of the dentate gyrus, mean” value in assay [2] (pilo-TC10 rats) is 1.5±0.6; in assay [2] (pilo-TC30 rats) it was 2.6±1.0; in assay [2] (whole group of pilo-TC60 rats), 1.5±0.7. Further, in the assay with seizures in rats, the ED50 lay in the range of 4 to 30 mg/kg.

The values are drawn from US20110152362A1, “METHODS OF TREATING EPILEPTOGENESIS AND EPILEPSY” (priority 2004, published 2011).
